The source made the active and inactive calls. No cut-off for these calls is given here.
Key:
C6 [1] = assay: Antiproliferative activity against rat C6 cells assessed as growth inhibition incubated for 72 hrs by CCK-8 assay; assay type: functional, cell-based; details: C6, 72 h
U-87 MG = assay: Antiproliferative activity against human U-87 MG cells assessed as growth inhibition incubated for 72 hrs by CCK-8 assay; assay type: functional, cell-based, U-87MG ATCC
U-251 = assay: Antiproliferative activity against human U-251 cells assessed as growth inhibition incubated for 72 hrs by CCK-8 assay; assay type: functional, cell-based; details: U-251, 72 h
[2] = target: T1, Prostaglandin G/H synthase 2 (Homo sapiens, UniProt P35354); assay: Inhibition of human COX2 assessed as fluorescence by microplate reader
T1 sequence (P35354 whole entry): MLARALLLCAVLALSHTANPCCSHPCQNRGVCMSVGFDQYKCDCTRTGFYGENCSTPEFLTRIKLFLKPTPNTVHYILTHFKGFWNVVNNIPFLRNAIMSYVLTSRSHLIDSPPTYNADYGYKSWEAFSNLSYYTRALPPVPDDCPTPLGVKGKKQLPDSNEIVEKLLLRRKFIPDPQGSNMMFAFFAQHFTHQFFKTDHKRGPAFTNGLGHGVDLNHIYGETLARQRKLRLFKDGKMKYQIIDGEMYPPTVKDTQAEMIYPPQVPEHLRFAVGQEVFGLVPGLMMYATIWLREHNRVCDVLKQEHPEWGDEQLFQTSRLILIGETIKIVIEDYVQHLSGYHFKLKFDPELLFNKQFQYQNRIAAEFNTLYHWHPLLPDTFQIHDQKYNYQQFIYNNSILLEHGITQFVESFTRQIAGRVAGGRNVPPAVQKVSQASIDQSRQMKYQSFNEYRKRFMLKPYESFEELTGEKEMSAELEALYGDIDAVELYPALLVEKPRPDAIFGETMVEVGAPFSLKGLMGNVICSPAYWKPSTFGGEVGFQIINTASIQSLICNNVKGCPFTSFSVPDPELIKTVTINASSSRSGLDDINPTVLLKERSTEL

BV-2 = assay: Inhibition of MMP9 production in mouse BV-2 cells co-cultured with rat C6 glioma cells at 2 uM incubated for 24 hrs by Western blot analysis; assay type: functional, cell-based
C6 [3] = assay: Antitumor activity against rat C6 cells inoculated orthotopic Sprague-Dawley rat model assessed as reduction tumor volume at 50 mg/kg, ip twice a day treated 3 days after tumor cell injection measured for 13 days after tumor implantation; assay type: functional, organism-based; details: time 3.0 day
C6 [4] = assay: Antitumor activity against rat C6 cells inoculated orthotopic Sprague-Dawley rat model assessed as decrease in PGE2 in tumor tissue at 50 mg/kg, ip twice a day treated 3 days after tumor cell injection measured for 13 days after tumor implantation […]; assay type: functional, organism-based; details: time 3.0 day
[5] = Toxicity in rat C6 cells inoculated orthotopic Sprague-Dawley rat model assessed as body weight change at 50 mg/kg, ip twice a day administered for 13 days of tumor implantation; assay type: organism-based; details: in vivo, 312 h, time 13 day
C6 [6] = assay: Antitumor activity against rat C6 cells inoculated orthotopic Sprague-Dawley rat model assessed as decrease in p-STAT3 in tumor tissue at 50 mg/kg, ip twice a day treated 3 days after tumor cell injection measured for 13 days after tumor implantation by Western blot analysis; assay type: functional, organism-based; details: time 3.0 day
C6 [7] = assay: Antitumor activity against rat C6 cells inoculated orthotopic Sprague-Dawley rat model assessed as tumor growth inhibition at 50 mg/kg, ip twice a day treated 3 days after tumor cell injection measured for 13 days after tumor implantation; assay type: functional; details: 72 h, time 3 day, read-out: TGI
C6 [8] = assay: Antitumor activity against rat C6 cells inoculated orthotopic Sprague-Dawley rat model assessed as increase in E-cadherin in tumor tissue at 50 mg/kg, ip twice a day treated 3 days after tumor cell injection measured for 13 days after tumor implantation by Western blot analysis; assay type: functional, organism-based; details: time 3.0 day
C6 [9] = assay: Antitumor activity against rat C6 cells inoculated orthotopic Sprague-Dawley rat model assessed as decrease in VEGF-A in tumor tissue at 50 mg/kg, ip twice a day treated 3 days after tumor cell injection measured for 13 days after tumor implantation by Western blot analysis; assay type: functional, organism-based; details: time 3.0 day
C6 [10] = assay: Antitumor activity against rat C6 cells inoculated orthotopic Sprague-Dawley rat model assessed as reduction tumor weight at 50 mg/kg, ip twice a day treated 3 days after tumor cell injection measured for 13 days after tumor implantation; assay type: functional, organism-based; details: time 3.0 day

SMILES | IC50 (C6 [1]) | IC50 (U-87 MG) | IC50 (U-251) | IC50 [2] | other results
COc1ccc2[nH]cc(CCNC(C)=O)c2c1 [MELATONIN] | > 40 µM | > 40 µM | > 40 µM | – | –
O=C(NCCc1c[nH]c2ccccc12)c1ccccc1Nc1ccc(F)cc1 | 27.1 µM | > 40 µM | 12.8 µM | 2.46 µM | –
O=C(NCCc1c[nH]c2ccccc12)c1ccccc1Nc1cccc(Br)c1 | > 40 µM | > 40 µM | 21 µM | > 40 µM | –
Cc1cccc(Nc2ccccc2C(=O)NCCc2c[nH]c3ccccc23)c1 | > 40 µM | 23.4 µM | 13.3 µM | 31 µM | –
O=C(NCCc1c[nH]c2ccccc12)c1ccccc1Nc1ccc(C(F)(F)F)cc1 | > 40 µM | 35.7 µM | 17.3 µM | > 40 µM | –
O=C(NCCc1c[nH]c2ccccc12)c1ccccc1Nc1cccnc1Cl | 24.1 µM | > 40 µM | 27.5 µM | 2.96 µM | –
CN(C)c1ccc(Nc2ccccc2C(=O)NCCc2c[nH]c3ccccc23)cc1 | > 40 µM | > 40 µM | > 40 µM | 1.43 µM | inhibition (BV-2): Active
O=C(NCCc1c[nH]c2ccccc12)c1ccccc1Nc1cccc(Cl)c1 | > 40 µM | > 40 µM | 22.2 µM | > 40 µM | –
COc1ccc(Nc2ccccc2C(=O)NCCc2c[nH]c3ccccc23)cc1 | > 40 µM | > 40 µM | 32.3 µM | 6.21 µM | –
O=C(NCCc1c[nH]c2ccccc12)c1ccccc1Nc1ccc(Cl)cc1 | > 40 µM | > 40 µM | 17.9 µM | 3.98 µM | –
O=C(NCCc1c[nH]c2ccccc12)c1ccccc1Nc1ccccc1Cl | > 40 µM | > 40 µM | 14.8 µM | > 40 µM | –
O=C(NCCc1c[nH]c2ccccc12)c1ccccc1Nc1ccc(Br)cc1 | > 40 µM | > 40 µM | > 40 µM | 5.68 µM | –
O=C(NCCc1c[nH]c2ccccc12)c1ccccc1Nc1ccccc1F | > 40 µM | > 40 µM | 26.2 µM | 4.23 µM | –
Cc1ccc(Nc2ccccc2C(=O)NCCc2c[nH]c3ccccc23)cc1 | > 40 µM | 34.7 µM | 13.7 µM | 5.96 µM | –
Cc1cncc(Nc2ccccc2C(=O)NCCc2c[nH]c3ccccc23)c1 | > 40 µM | > 40 µM | 24.4 µM | 17.6 µM | –
CCCCc1ccc(Nc2ccccc2C(=O)NCCc2c[nH]c3ccccc23)cc1 | > 33.7 µM | > 40 µM | 18.2 µM | > 40 µM | –
O=C(NCCc1c[nH]c2ccccc12)c1ccccc1Nc1cccnc1 | > 40 µM | > 40 µM | 25.2 µM | 23.7 µM | –
O=C(NCCc1c[nH]c2ccccc12)c1ccccc1Nc1cccc2cccnc12 | > 40 µM | > 40 µM | > 40 µM | > 40 µM | –
O=C(NCCc1c[nH]c2ccccc12)c1ccccc1Nc1ccccc1I | > 40 µM | > 40 µM | 32.9 µM | > 40 µM | –
Cc1ncccc1Nc1ccccc1C(=O)NCCc1c[nH]c2ccccc12 | > 40 µM | > 40 µM | 24.6 µM | 1.96 µM | –
O=C(NCCc1c[nH]c2ccccc12)c1ccccc1Nc1cccc(F)c1 | > 40 µM | > 40 µM | 20.4 µM | > 40 µM | –
Nc1ccccc1Nc1ccccc1C(=O)NCCc1c[nH]c2ccccc12 | > 40 µM | > 40 µM | > 40 µM | 1.21 µM | inhibition (BV-2): Active
O=C(NCCc1c[nH]c2ccccc12)c1ccccc1Nc1cncc(Br)c1 | > 40 µM | > 40 µM | 25.1 µM | > 40 µM | –
O=C(NCCc1c[nH]c2ccccc12)c1ccccc1Nc1ccc2nccnc2c1 | > 40 µM | > 40 µM | > 40 µM | > 40 µM | –
Cc1ccccc1Nc1ccccc1C(=O)NCCc1c[nH]c2ccccc12 | > 40 µM | > 40 µM | 30.5 µM | > 40 µM | –
Cc1ccc(-c2cc(C(F)(F)F)nn2-c2ccc(S(N)(=O)=O)cc2)cc1 [CELECOXIB] | > 40 µM | > 40 µM | > 40 µM | – | –
Cn1nnc2c(C(N)=O)ncn2c1=O [TEMOZOLOMIDE] | – | – | – | – | Activity (C6 [3]): Active; Activity (C6 [4]): Active; Activity [5]: Toxic; Activity (C6 [6]): Active; inhibition in vivo at 50 mg/kg (C6 [7]): 54.8%; Activity (C6 [8]): Active; Activity (C6 [9]): Active; Activity (C6 [10]): Active
Cc1ccc(Nc2ccccc2C(=O)NCCc2c[nH]c3ccccc23)cn1 | > 40 µM | > 40 µM | 17.9 µM | 19.6 µM | –
O=C(NCCc1c[nH]c2ccccc12)c1ccccc1Nc1ccccc1Br | 17.9 µM | > 40 µM | 21.4 µM | > 40 µM | –
